Results on 2 compounds are retold here after patent US20220184172A1, “AMPK/CASPASE-6 AXIS CONTROLS LIVER DAMAGE IN NONALCOHOLIC STEATOHEPATITIS” (The Regents of the University of California, priority 2019, published 2022).

*: point of attachment. Cbz = O=C(OCc1ccccc1)*; CH2F = FC*

Experiment [1] concerns cleaved caspase-3 and -7 in primary hepatocytes. Briefly: Caspase cascade after CHX plus TNFα and medium change in primary hepatocytes (IB). It counts as cell-based, mice. The conditions noted are these: 25 μM pretreatment 1 hr, CHX and TNFα 2 hrs, medium changed for 4 hrs. Here is the method:
FIGS. 16A-16D. Caspase-6 sustain activation of caspase cascade to induce apoptosis. FIG. 16A. HepG2 cells transfected with scrambled RNA or caspase-6 siRNA were treated with vehicle or 300 μg/ml CHX and 50 ng/ml TNFα for 20 hrs. Viability was measured by CCK-8 assay. Data are shown as mean±SD. *, P<0.05, two-way ANOVA. FIG. 16B. HepG2 cells transfected with scrambled RNA or Caspase-6 siRNA were treated with vehicle or 30 μg/ml CHX and 50 ng/ml TNFα for 2 hrs. Medium was changed to remove treatment. Cells were harvested at indicated time points. Cell lysates were subject to IB analysis. FIG. 16C. Isolated primary hepatocytes were pretreated with 25 μM Z-VEID-FMK (VEID) (SEQ ID NO: 71) for 1 hr and treated with 30 μg/ml CHX and 50 ng/ml TNFα for 2 hrs. Medium was changed to remove treatment for 4 hrs. Cell lysates were subject to IB analysis. FIG. 16D. Proposed model for roles of AMPK/caspase-6 axis in the regulation of NASH-associated liver damage. […]
Western blot was performed as previously described(11). […] Supernatants were collected and analyzed with BCA (Thermo Scientific) to quantify protein content. […] Individual proteins were detected with specific antibodies and visualized on film using horseradish peroxidase-conjugated secondary antibodies (Fisher Scientific) and SuperSignal West Pico PLUS Chemilunminescent Substrate (Thermo Scientific).

The test system of experiment [2] is CD-HFD-fed Flox and LAKO mice. Kind of experiment: Caspase-6 inhibitor Z-VEID-FMK in CD-HFD-fed Flox and LAKO mice. It counts as in vivo. An excerpt: FIG. 4A. […] Scale bar=50 μm. FIG. 4B. […] FIG. 4F. […] Scale bar=100 μm. FIG. 4G. […] Scale bar=50 μm.
FIG. 6A. […] FIG. 6B. […] FIG. 6C. […] FIG. 6D. […] FIG. 6E. […] FIG. 6F.
FIGS. 14A-14G. […] FIG. 14A. […] Scale bar=100 μm.

For experiment [3], the system named is procaspase-6 cleavage in primary hepatocytes. Kind of experiment: Procaspase-6 cleavage induced by TNFα and CHX in primary hepatocytes (IB). It is filed as cell-based, mice. The conditions noted are these: 10 μM pretreatment 1 hr, then 30 μg/ml CHX and 50 ng/ml TNFα 2 hrs. An excerpt:
FIGS. 5A-5K. AMPK phosphorylates caspase-6 to inhibit its cleavage and activation. FIG. 5A. […] IB analysis of cell lysates. n=3. Mean±SD. *, P<0.05, two-way ANOVA. FIG. 5B. […] Cell lysates were subject to caspase-6 activity assay. Mean±SD. *, P<0.05. FIG. 5C. Caspase-6 Ser^257 locates within AMPK substrate motif. FIG. 5C. discloses SEQ ID NOS 57-63, respectively, in order of appearance. FIG. 5D. In vitro kinase assay using recombinant caspase-6, and recombinant AMPKα1β1γ1 or AMPKα2β1γ1 active kinase. FIG. 5E. Alignment of caspase-6 sequence. FIG. 5E. discloses SEQ ID NOS 64-67, respectively, in order of appearance. FIG. 5F. HEK293T cells overexpressing caspase-6-myc WT, S^257A, S^257D or S^257E mutant were treated with 10 μg/ml CHX and 25 ng/ml TNFα for 2 hrs. IB analysis of cell lysates. FIGS. 5G-5J. C57BL/6J mice were fed CD-HFD for 6 weeks, followed by intraperitoneally injection of 25 mg/kg A-769662 or vehicle daily for 2 weeks while continuous CD-HI-D. Mice were sacrificed 6 hrs after last injection. FIG. 5G. IB analysis of liver lysates. n=5. FIG. 5H. Liver lysates were subject to caspase-6 activity assay. n=7. FIG. 5I. Liver sections stained as indicated therein (aCasp6 and DAPI); in the merged image sections, the different stains correspond to the grayscale shades as indicated in the single stained images to the left. Scale bar=50 μm. […] Quantification of aCasp6 staining per field in FIG. 5I. n=7. […]

The mark [4] stands for this setting: both Flox and LAKO mice, 5 mg/kg i.p. every other day for two weeks.

On to Z-VEID-FMK (Cbz-VEID-CH2F), for which, in experiment [1], the “cleaved caspase-3 and -7” value was “significant decrease”. Moreover, the “difference in liver damage between Flox and LAKO mice” value in experiment [2] (5 mg/kg i.p. every other day for two weeks) is given as “abrogated”. In addition, the “cytosolic cytochrome c (liver fractions, IB)” value in experiment [2] (both Flox and LAKO mice, 5 mg/kg i.p. every other day for 2 weeks) is given as “decreased”. Also, in experiment [2] (setting [4]), the “liver fibrosis (Sirius red fibrosis area, liver hydroxyproline)” value was “reduced”; the “number of apoptotic hepatocytes (TUNEL)” value is reported as “significantly reduced”; the “serum ALT activity” value is “decreased”.
Consider `COC[C@@H]1CCCN1S(=O)(=O)c1ccc2c(c1)C(=O)C(=O)N2` [caspase-3 and -7 inhibitor], for which the “procaspase-6 cleavage caused by TNFα and CHX” value in experiment [3] is listed as “largely attenuated”.
